Measured values reported in patent publication US20220380341A1, “INHIBITORS OF HIV-1 NEF FOR THE TREATMENT OF HIV DISEASE” (priority 2018, published 2022).
Where two headings read alike, the source gives them in different places.

Legend:
HIV-1NL4-3 = assay: HIV-1 infectivity assay in TZM-bl reporter cell line (LTR-luciferase, 48 h); format: cell-based; details: Human immunodeficiency virus 1, TZM-bl
How it was run: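 TZM-bl cells infected with HIV-1NL4-3 ± compound (1 μM), luciferase measured at 48 h. Normalization: DMSO/wild-type = 0% inhibition, DMSO/Nef-defective = 100% of Nef-dependent effect.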

TZM-bl cell line = format: cell-based; details: human, 1 μM
How it was run: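 Luciferase read-out 48 h post-infection; compound at 1 μM during HIV-1NL4-3 infection of TZM-bl cells. Percent inhibition scaled to DMSO wild-type virus (0%) and DMSO Nef-defective virus (100% of Nef-dependent effect). Viability checked separately in uninfected cells by Cell Titer Blue.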

HIV-1 NefNL4-3 = HIV-1 NefNL4-3 (Human immunodeficiency virus type 1 group M subtype B, UniProt P03406, A33V/T15A/T51N/V11I); assay: Surface plasmon resonance binding to recombinant full-length Nef (NL4-3); details: for RU30/RUNef (extent of binding): response units at 30 μM relative to Nef immobilized on the SPR chip; for Nef NL4-3 Binding, SPR 1:1 or 2-site fitting KD1: 1:1 Langmuir fit where the KD2 cell says '1 to 1 fitting', else 2-site fit
[1] = 1.0 μM, TZM-bl reporter cell line, Table 4, read-out: % Infectivity Inhibition
[2] = 48 h, Table 2, TZM-bl cells, 1 μM, 48 h, 100% = Nef-defective HIV-1, read-out: HIV-1 Infectivity % Inhibition Norm. to Δ-Nef @ 1 μM

SMILES	inhibition at 1 µM (HIV-1NL4-3; [2]) [%]	Percent Viability @ 1 μM (TZM-bl cells) (TZM-bl cell line) [%]	Nef NL4-3 Binding, SPR 1:1 or 2-site fitting KD1 (HIV-1 NefNL4-3; Table 2)	also measured
CS(=O)(=O)c1ccc(-c2nn(-c3cc(C(F)(F)F)n[nH]3)c(O)c2CCc2ccc(F)cc2)cc1 [Compound I-603, 4-[2-(4-fluorophenyl)ethyl]-3-(4-methanesulfonylphenyl)-5′-(trifluoromethyl)-2′H-[1,3′-bipyrazol]-5-ol]	57.8	106.0		inhibition at 1 µM (HIV-1NL4-3; [1]): 57.8%; % Cell Viability (TZM-bl cell line): 100%; Kd (HIV-1 NefNL4-3): 1.83 µM; Kd (HIV-1 NefNL4-3; KD, M, Table 4, SPR fit 2-step induced fit, KD = koff/kon × koff2/(koff2 + kon2)): 35.1 µM; Kd (HIV-1 NefNL4-3; Nef NL4-3 Binding, SPR 1:1 or 2-site fitting KD2, Table 2, 2-site fit, second component): 3.6 µM; Kd (HIV-1 NefNL4-3; Nef NL4-3 Binding, SPR 2-state fitting KD, Table 2, 2-step induced-fit model): 0.058 µM; T, minutes (residence time) (HIV-1 NefNL4-3; Table 4, 2-step induced fit, T = 1/koff2): 2.18E + 00 minutes; RU30/RUNef (extent of binding) (HIV-1 NefNL4-3): 1.19E- 02
CS(=O)(=O)c1cccc(-c2nn(-c3cc(C(F)(F)F)n[nH]3)c(O)c2CCC2CCOCC2)c1 [Compound I-608, 3-(3-methanesulfonylphenyl)-4-[2-(oxan-4-yl)ethyl]-5′-(trifluoromethyl)-2′H-[1,3′-bipyrazol]-5-ol]	5.3	101.2	No interaction	
CS(=O)(=O)c1ccc(-c2nn(-c3cc(C(F)(F)F)n[nH]3)c(O)c2CCC2CCOCC2)cc1 [Compound I-611, 3-(4-methanesulfonylphenyl)-4-[2-(oxan-4-yl)ethyl]-5′-(trifluoromethyl)-2′H-[1,3′-bipyrazol]-5-ol]	65.7	99.6	No interaction	
Oc1c(CCc2ccncc2)c(-c2cccc(F)c2)nn1-c1cc(C(F)(F)F)n[nH]1 [Compound I-615, 3-(3-fluorophenyl)-4-[2-(pyridin-4-yl)ethyl]-5′-(trifluoromethyl)-2′H-[1,3′-bipyrazol]-5-ol]	47.9	98.9	No interaction	
O=C(O)c1ccc(CCc2c(-c3ccccc3)nn(-c3cc(C(F)(F)F)n[nH]3)c2O)cc1 [Compound I-618, 4-{2-[5-hydroxy-3-phenyl-5′-(trifluoromethyl)-2′H-[1,3′-bipyrazol]-4-yl]ethyl}benzoic acid]	0	93.8	No interaction	
Oc1c(CCc2ccc(F)cc2)c(-c2ccc(C(F)(F)F)cc2)nn1-c1cc(C2CC2)n[nH]1 [Compound I-619, 5′-cyclopropyl-4-[2-(4-fluorophenyl)ethyl]-3-[4-(trifluoromethyl)phenyl]-2′H-[1,3′-bipyrazol]-5-ol]	0	105.5	No interaction	
Oc1c(CC2CCOCC2)c(C2CCOCC2)nn1-c1cc(C(F)(F)F)n[nH]1 [Compound I-621, 3-(oxan-4-yl)-4-[(oxan-4-yl)methyl]-5′-(trifluoromethyl)-2′H-[1,3′-bipyrazol]-5-ol]	42.4	95.3	No interaction	
Oc1c(CC2CCOCC2)c(C2CC2)nn1-c1cc(C(F)(F)F)n[nH]1 [Compound I-622, 3-cyclopropyl-4-[(oxan-4-yl)methyl]-5′-(trifluoromethyl)-2′H-[1,3′-bipyrazol]-5-ol]	4.9	98.5	No interaction	
Oc1c(CCc2ccc(F)cc2)c(C2CCOCC2)nn1-c1cc(C(F)(F)F)n[nH]1 [Compound I-623, 4-[2-(4-fluorophenyl)ethyl]-3-(oxan-4-yl)-5′-(trifluoromethyl)-2′H-[1,3′-bipyrazol]-5-ol]	17.4	100.7		inhibition at 1 µM (HIV-1NL4-3; [1]): 17.4%; % Cell Viability (TZM-bl cell line): 100%; Kd (HIV-1 NefNL4-3): 221 µM; Kd (HIV-1 NefNL4-3; KD, M, Table 4, SPR fit 1:1 Langmuir, KD = koff/kon): 221 µM; T, minutes (residence time) (HIV-1 NefNL4-3; Table 4, 1:1 Langmuir fit, T = 1/koff): 2.88E + 00 minutes; RU30/RUNef (extent of binding) (HIV-1 NefNL4-3): 1.67E- 02
